Experimental findings from paper PMC9508125, “The evolutionary advantage of an aromatic clamp in plant family 3 glycoside exo-hydrolases” (Nature Communications, 2022) are described below.

Experiment in all cases: Relative rates of hydrolysis of poly-, oligosaccharides and aryl-glycosides
Common to all, as to type: biochemical

One assay addresses T1, HvExoI W434H mutant (Hordeum vulgare, UniProt Q9XEI3, W459H).
T1 sequence (Q9XEI3 26-630 W459H): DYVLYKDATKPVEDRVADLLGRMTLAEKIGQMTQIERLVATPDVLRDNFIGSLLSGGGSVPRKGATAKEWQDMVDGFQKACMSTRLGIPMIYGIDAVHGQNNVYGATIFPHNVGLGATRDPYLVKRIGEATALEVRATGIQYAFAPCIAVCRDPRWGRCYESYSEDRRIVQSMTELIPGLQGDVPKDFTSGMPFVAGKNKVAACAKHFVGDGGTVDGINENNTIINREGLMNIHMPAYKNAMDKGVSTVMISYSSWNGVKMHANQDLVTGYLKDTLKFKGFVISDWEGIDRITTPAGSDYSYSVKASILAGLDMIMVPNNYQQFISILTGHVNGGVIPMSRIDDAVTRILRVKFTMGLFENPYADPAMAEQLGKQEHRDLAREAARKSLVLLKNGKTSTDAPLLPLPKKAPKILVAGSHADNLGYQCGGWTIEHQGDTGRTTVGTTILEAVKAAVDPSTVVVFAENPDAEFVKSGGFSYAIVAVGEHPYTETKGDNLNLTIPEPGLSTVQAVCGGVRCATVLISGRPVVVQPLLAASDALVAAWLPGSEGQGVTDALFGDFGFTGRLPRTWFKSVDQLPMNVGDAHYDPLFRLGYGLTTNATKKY
The conditions noted are these: substance is the substrate. In a few lines: (§1)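 First, pH dependence was tested in McIlvaine buffers at pH 3.5–8.5 and 30 °C. Next, temperature dependence was tested in 100 mM sodium acetate, pH 5.25, at 0–80 °C for 15 min, with both scans on 0.2% (w/v) 4NP-Glc. Relative substrate rates then used 50 pmoles of enzyme.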

Assay [1] has as its target T2, HvExoI W286F/W434A mutant (Hordeum vulgare, UniProt Q9XEI3, W311F/W459A).
T2 sequence (Q9XEI3 26-630 W311F/W459A): T1 sequence (Q9XEI3 26-630 W459H) with W286F, H434A
The conditions noted are these: substance is the substrate, nd = activity not detected. In a few lines: as §1

The target in assay [2] is T3, HvExoI W286F/W434F mutant (Hordeum vulgare, UniProt Q9XEI3, W311F/W459F).
T3 sequence (Q9XEI3 26-630 W311F/W459F): T1 sequence (Q9XEI3 26-630 W459H) with W286F, H434F
The conditions noted are these: substance is the substrate, nd = activity not detected. The method, boiled down:
as §1

A further assay deals with T4, HvExoI W434A mutant (Hordeum vulgare, UniProt Q9XEI3, W459A).
T4 sequence (Q9XEI3 26-630 W459A): T1 sequence (Q9XEI3 26-630 W459H) with H434A
The conditions noted are these: substance is the substrate, nd = activity not detected. In a few lines: as §1

Numbering of substitutions follows the chain as printed.

For the compound `OC[C@H]1O[C@@H](O[C@H]2C(O)O[C@H](CO)[C@@H](O)[C@@H]2O)[C@H](O)[C@@H](O)[C@@H]1O` (stereo partly shown) [Sophorose], the “Activity (relative rate of hydrolysis)” value on HvExoI W434H mutant was 0.6 ± 0.1 μmole/min per mg protein; in assay [1], 0.02 ± 0.001 μmole/min per mg protein; in assay [2] it was 0.3 ± 0.03 μmole/min per mg protein.
The matching figures for `OC[C@H]1O[C@@H](O[C@H]2[C@H](O)[C@@H](O)[C@H](O[C@H]3[C@H](O)[C@@H](O)[C@H](O[C@H]4[C@H](O)[C@@H](O)[C@H](O[C@H]5[C@H](O)[C@@H](O)C(O)O[C@@H]5CO)O[C@@H]4CO)O[C@@H]3CO)O[C@@H]2CO)[C@H](O)[C@@H](O)[C@@H]1O` (stereo partly shown) [Cellopentaose]: 0.2 ± 0.01 μmole/min per mg protein, 0.01 ± 0.0003 μmole/min per mg protein and 0.02 ± 0.001 μmole/min per mg protein.
For the compound Gentiobiose, the “Activity (relative rate of hydrolysis)” value on HvExoI W434H mutant is on record as 0.3 ± 0.02 μmole/min per mg protein; in assay [1], 0.002 ± 0.0002 μmole/min per mg protein; in assay [2], 0.01 ± 0.001 μmole/min per mg protein.
For the compound `OC[C@H]1O[C@@H](O[C@@H]2[C@@H](O)[C@H](O[C@@H]3[C@@H](O)[C@H](O[C@H]4[C@H](O)[C@@H](CO)OC(O)[C@@H]4O)O[C@H](CO)[C@H]3O)O[C@H](CO)[C@H]2O)[C@H](O)[C@@H](O)[C@@H]1O` (stereo partly shown) [Laminaritetraose], the “Activity (relative rate of hydrolysis)” value is 1.4 ± 0.1 μmole/min per mg protein on HvExoI W434H mutant, 0.2 ± 0.01 μmole/min per mg protein in assay [1], 0.4 ± 0.04 μmole/min per mg protein in assay [2] and 1.1 ± 0.1 μmole/min per mg protein at HvExoI W434A mutant.
As for `O=[N+]([O-])c1ccc(O[C@@H]2O[C@H](CO)[C@@H](O)[C@H](O)[C@H]2O)cc1` [4NP-Glc, 4-nitrophenyl β-D-glucopyranoside], the “Activity (relative rate of hydrolysis)” value on HvExoI W434H mutant was 2.4 ± 0.2 μmole/min per mg protein; in assay [1], 1.8 ± 0.03 μmole/min per mg protein; in assay [2], 0.5 ± 0.02 μmole/min per mg protein; at HvExoI W434A mutant it was 6.1 ± 0.1 μmole/min per mg protein.
Consider `OC[C@H]1O[C@@H](O[C@H]2[C@H](O)[C@@H](O)[C@H](O[C@H]3[C@H](O)[C@@H](O)C(O)O[C@@H]3CO)O[C@@H]2CO)[C@H](O)[C@@H](O)[C@@H]1O` (stereo partly shown) [Cellotriose], for which the “Activity (relative rate of hydrolysis)” value at HvExoI W434H mutant came out at 0.3 ± 0.03 μmole/min per mg protein; in assay [1], 0.01 ± 0.001 μmole/min per mg protein; in assay [2], 0.02 ± 0.002 μmole/min per mg protein.
Consider `OC[C@H]1O[C@@H](O[C@@H]2[C@@H](O)[C@H](O[C@@H]3[C@@H](O)[C@H](O[C@@H]4[C@@H](O)[C@H](O[C@@H]5[C@@H](O)[C@H](O[C@H]6[C@H](O)[C@@H](CO)OC(O)[C@@H]6O)O[C@H](CO)[C@H]5O)O[C@H](CO)[C@H]4O)O[C@H](CO)[C@H]3O)O[C@H](CO)[C@H]2O)[C@H](O)[C@@H](O)[C@@H]1O` (stereo partly shown) [Laminarihexaose], for which the “Activity (relative rate of hydrolysis)” value on HvExoI W434H mutant amounted to 1.5 ± 0.1 μmole/min per mg protein; in assay [1], 0.1 ± 0.004 μmole/min per mg protein; in assay [2], 0.5 ± 0.1 μmole/min per mg protein; at HvExoI W434A mutant, 1.0 ± 0.02 μmole/min per mg protein.
For `OC[C@H]1O[C@@H](O[C@@H]2[C@@H](O)[C@H](O[C@@H]3[C@@H](O)[C@H](O[C@@H]4[C@@H](O)[C@H](O[C@@H]5[C@@H](O)[C@H](O)O[C@H](CO)[C@H]5O)O[C@H](CO)[C@H]4O)O[C@H](CO)[C@H]3O)O[C@H](CO)[C@H]2O)[C@H](O)[C@@H](O)[C@@H]1O` [Laminaripentaose], the “Activity (relative rate of hydrolysis)” value was determined as 1.5 ± 0.1 μmole/min per mg protein on HvExoI W434H mutant, 0.2 ± 0.02 μmole/min per mg protein in assay [1], 0.4 ± 0.04 μmole/min per mg protein in assay [2] and 1.0 ± 0.1 μmole/min per mg protein on HvExoI W434A mutant.
For Cellobiose, the “Activity (relative rate of hydrolysis)” value on HvExoI W434H mutant turned out to be 0.1 ± 0.01 μmole/min per mg protein; in assay [1] it was 0.01 ± 0.001 μmole/min per mg protein; in assay [2], 0.01 ± 0.001 μmole/min per mg protein.
For `OC[C@H]1O[C@@H](O[C@H]2[C@H](O)[C@@H](O)[C@H](O[C@H]3[C@H](O)[C@@H](O)[C@H](O[C@H]4[C@H](O)[C@@H](O)C(O)O[C@@H]4CO)O[C@@H]3CO)O[C@@H]2CO)[C@H](O)[C@@H](O)[C@@H]1O` (stereo partly shown) [Cellotetraose], the results for the “Activity (relative rate of hydrolysis)” value (on HvExoI W434H mutant; in assay [1]; in assay [2]) were 0.2 ± 0.01 μmole/min per mg protein, 0.1 ± 0.01 μmole/min per mg protein and 0.02 ± 0.001 μmole/min per mg protein, respectively.
In the case of `OC[C@H]1O[C@@H](O[C@H]2[C@H](O)[C@@H](O)[C@H](O[C@H]3[C@H](O)[C@@H](O)[C@H](O[C@H]4[C@H](O)[C@@H](O)[C@H](O[C@H]5[C@H](O)[C@@H](O)[C@H](O[C@H]6[C@H](O)[C@@H](O)C(O)O[C@@H]6CO)O[C@@H]5CO)O[C@@H]4CO)O[C@@H]3CO)O[C@@H]2CO)[C@H](O)[C@@H](O)[C@@H]1O` (stereo partly shown) [Cellohexaose], the “Activity (relative rate of hydrolysis)” value on HvExoI W434H mutant is 0.3 ± 0.02 μmole/min per mg protein; in assay [1], 0.01 ± 0.0002 μmole/min per mg protein; in assay [2], 0.01 ± 0.001 μmole/min per mg protein.
